According to ChEMBL document CHEMBL1201862, “PubChem BioAssay data set” (2004):
Calls of active or inactive are those of the source.

Legend:
[1] = intracellular Trypanosoma cruzi inhibitors in host cells – cell-based, plate reader, cherry-pick samples, set 3, dose response (AID 651818); assay type: functional;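 further: compounds incubated with infected cells for about four days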
[2] = biological target: T1, Short transient receptor potential channel 4 (Mus musculus, UniProt Q9QUQ5); assay: mouse TRPC4 channel inhibitors, dose response, cell-based, HEK293 TRPC4/mu-opioid, Fluo-4 calcium (AID 434942); assay type: functional;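 further: potency of inhibitors blocking the TRPC4 calcium response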
T1 sequence (Q9QUQ5 whole entry): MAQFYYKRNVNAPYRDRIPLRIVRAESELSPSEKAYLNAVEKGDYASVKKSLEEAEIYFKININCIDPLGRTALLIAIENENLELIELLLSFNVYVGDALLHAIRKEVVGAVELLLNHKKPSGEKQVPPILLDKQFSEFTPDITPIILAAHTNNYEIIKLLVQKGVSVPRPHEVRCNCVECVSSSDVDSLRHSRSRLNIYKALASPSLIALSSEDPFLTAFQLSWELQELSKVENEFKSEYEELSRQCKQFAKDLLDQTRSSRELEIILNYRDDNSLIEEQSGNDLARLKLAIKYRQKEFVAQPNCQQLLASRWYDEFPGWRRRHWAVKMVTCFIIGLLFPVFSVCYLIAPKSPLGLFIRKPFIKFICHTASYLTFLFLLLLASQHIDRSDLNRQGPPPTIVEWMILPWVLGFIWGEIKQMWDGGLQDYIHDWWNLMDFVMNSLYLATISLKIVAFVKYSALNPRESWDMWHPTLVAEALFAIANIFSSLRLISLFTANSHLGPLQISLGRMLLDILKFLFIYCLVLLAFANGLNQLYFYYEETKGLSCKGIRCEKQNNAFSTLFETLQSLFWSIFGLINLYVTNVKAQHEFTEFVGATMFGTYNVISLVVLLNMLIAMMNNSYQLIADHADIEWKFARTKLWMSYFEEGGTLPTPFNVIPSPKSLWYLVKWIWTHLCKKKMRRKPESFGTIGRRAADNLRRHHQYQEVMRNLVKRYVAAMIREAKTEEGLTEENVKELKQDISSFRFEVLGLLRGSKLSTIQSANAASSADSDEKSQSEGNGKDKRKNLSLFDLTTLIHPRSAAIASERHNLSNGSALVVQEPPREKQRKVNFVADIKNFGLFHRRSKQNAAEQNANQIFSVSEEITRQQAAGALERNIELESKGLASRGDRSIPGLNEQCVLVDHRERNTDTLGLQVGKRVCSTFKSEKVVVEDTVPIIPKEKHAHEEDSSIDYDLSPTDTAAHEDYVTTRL

[3] = tested on: Streptococcus sp. 'group A'; assay: growth inhibition of control SK(-) GAS strain, dose response, counter-screen for streptokinase expression inhibitor project, luminescence, kanamycin, BacTiterGlo, confirmation (AID 1900); assay type: functional, organism-based; conditions: Streptococcus sp. 'group A'
cells [4] = assay type: functional, cell-based
Vero = assay: host cell cytotoxicity of antiviral hits, dose response, cytotoxicity control for West Nile virus antiviral project, secondary assay (AID 1650); assay type: functional; conditions: Chlorocebus sabaeus
[5] = inhibitors of intracellular T. cruzi replication, confirmation, NIH3T3 host cells, beta-gal luminescence (AID 2044); assay type: functional, cell-based;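 further: intracellular parasites grown in NIH/3T3 mouse fibroblasts as host cells; luminescent beta-galactosidase reporter signal from transgenic T. cruzi replicating inside host cells; inhibitors lower the luminescence signal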
[6] = microbe, parasite or virus in culture; assay type: functional; conditions: Mycobacterium tuberculosis
cells [7] = assay type: functional, cell-based; remark: listed apart in the source
[8] = cytotoxicity toward NIH3T3 fibroblasts, dose response, counter-screen, cell-based, ATP luminescence, mouse fibroblasts (AID 2010); assay type: functional;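 further: cells exposed to compound for about 90 hours before reading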
Streptococcus = assay: Group A Streptococcus viability loss, dose response, counter-screen for streptokinase expression inhibitor project, luminescence, BacTiterGlo (AID 1915); assay type: functional, organism-based; conditions: Streptococcus;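 further: potency for reduction of bacterial viability or growth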
X-box-binding protein 1 = biological target: T2, X-box-binding protein 1 (Homo sapiens, UniProt P17861); assay type: functional, Cricetulus griseus;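 further: confirmatory dose-response counter-screen serving a CHOP assay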
T2 sequence (P17861 whole entry): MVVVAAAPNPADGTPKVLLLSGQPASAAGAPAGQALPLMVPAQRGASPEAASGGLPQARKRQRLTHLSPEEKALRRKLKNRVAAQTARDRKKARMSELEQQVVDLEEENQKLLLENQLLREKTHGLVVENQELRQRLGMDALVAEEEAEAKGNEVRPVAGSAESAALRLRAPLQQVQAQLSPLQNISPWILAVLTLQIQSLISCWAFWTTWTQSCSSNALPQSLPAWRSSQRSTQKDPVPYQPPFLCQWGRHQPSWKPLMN

[9] = inhibitors of HIV Env-driven cell fusion, dose response, cherry-pick (AID 652057); assay type: functional, cell-based
[10] = ZM109 Env clade C HIV-1 fusion inhibitors, dose response, HeLa effector, CEM target cells, luciferase, cherry-pick (AID 652058); assay type: functional, cell-based
[11] = off-target signal loss in HeLa-CEM21 co-culture – HeLa F-luc CTL cells, cherry-picked, counter-screen for HIV-1 Env fusion inhibitor project, dose response (AID 652040); assay type: functional, cell-based;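 further: potency for signal decrease marking cytotoxic or nonspecific inhibition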
[12] = inhibitors of clade B AD8 Env fusion, dose response, cell-based, cherry-pick (AID 652062); assay type: functional;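 further: luciferase signal from cell-cell fusion driven by HIV-1 clade B AD8 Env; potency is for inhibitors of fusion seen as a drop in luminescence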
Leucine aminopeptidase = biological target: T3, Leucine aminopeptidase (Plasmodium falciparum 3D7, UniProt Q8IL11); assay: P. falciparum M17LAP inhibitors, primary screen, biochemical, fluorogenic H-Leu-NHMec substrate, 1536-well (AID 1619); assay type: functional
T3 sequence (Q8IL11 whole entry): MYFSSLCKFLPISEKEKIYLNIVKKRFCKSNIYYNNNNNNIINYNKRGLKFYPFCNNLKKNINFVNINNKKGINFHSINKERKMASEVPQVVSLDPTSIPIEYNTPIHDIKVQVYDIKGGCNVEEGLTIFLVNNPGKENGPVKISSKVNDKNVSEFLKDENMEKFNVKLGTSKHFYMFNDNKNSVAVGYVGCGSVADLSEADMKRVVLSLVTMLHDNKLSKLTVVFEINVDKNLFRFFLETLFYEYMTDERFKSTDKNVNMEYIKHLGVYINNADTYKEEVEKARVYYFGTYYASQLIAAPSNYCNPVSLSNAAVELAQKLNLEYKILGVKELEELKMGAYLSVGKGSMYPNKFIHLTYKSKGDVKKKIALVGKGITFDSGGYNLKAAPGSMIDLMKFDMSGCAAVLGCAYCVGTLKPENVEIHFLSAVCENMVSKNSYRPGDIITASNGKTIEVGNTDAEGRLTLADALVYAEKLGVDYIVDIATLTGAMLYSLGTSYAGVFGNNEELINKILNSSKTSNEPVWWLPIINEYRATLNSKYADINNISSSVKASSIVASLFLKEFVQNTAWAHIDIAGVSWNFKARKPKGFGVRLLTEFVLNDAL

Aspartyl aminopeptidase = biological target: T4, Aspartyl aminopeptidase (Plasmodium falciparum 3D7, UniProt Q8I2J3); assay: Counterscreen for inhibitors of M1 and M17 aminopeptidases: QFRET-based biochemical high throughput dose response assay for inhibitors of the Plasmodium falciparum M18 Aspartyl Aminopeptidase (PFM18AAP). [Related PubChem assays: 1619 (Screening assay (M17LAP inhibitors).), 1445 (Screening assay (M1AAP inhibitors).)]
T4 sequence (Q8I2J3 whole entry): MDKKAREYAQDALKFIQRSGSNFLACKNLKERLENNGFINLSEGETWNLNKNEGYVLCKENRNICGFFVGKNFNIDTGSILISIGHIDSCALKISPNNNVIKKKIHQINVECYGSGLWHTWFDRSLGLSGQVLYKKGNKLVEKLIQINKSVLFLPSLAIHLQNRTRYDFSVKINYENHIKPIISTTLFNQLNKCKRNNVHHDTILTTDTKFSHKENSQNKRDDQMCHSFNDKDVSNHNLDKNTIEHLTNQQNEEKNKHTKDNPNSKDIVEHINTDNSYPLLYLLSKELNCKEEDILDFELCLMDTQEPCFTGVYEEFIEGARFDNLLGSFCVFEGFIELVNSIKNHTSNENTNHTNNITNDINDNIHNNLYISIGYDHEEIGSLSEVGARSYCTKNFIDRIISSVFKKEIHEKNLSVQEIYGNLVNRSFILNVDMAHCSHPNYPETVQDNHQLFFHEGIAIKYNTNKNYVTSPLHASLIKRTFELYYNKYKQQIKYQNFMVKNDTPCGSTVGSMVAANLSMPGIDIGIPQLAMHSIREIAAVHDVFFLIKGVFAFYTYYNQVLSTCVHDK

Procathepsin L = Procathepsin L (Homo sapiens, UniProt P07711); assay: cathepsin L inhibitors, dose response, counter-screen for M1/M17 aminopeptidase inhibitor project, biochemical, QFRET, 1536-well (AID 2214)
Procathepsin L, sequence (P07711 whole entry): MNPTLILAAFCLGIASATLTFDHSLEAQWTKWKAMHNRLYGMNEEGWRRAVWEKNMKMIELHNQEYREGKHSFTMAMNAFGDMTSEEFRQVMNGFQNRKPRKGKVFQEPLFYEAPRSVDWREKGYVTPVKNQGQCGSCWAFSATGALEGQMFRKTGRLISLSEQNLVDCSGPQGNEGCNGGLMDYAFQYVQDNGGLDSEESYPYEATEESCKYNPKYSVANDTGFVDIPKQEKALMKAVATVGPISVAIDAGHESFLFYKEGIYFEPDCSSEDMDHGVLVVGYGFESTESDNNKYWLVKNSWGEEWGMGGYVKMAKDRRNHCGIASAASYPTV

C[C@@H]1CN([C@H](C)CO)C(=O)c2cccc(NC(=O)C3CCCCC3)c2O[C@H]1CN(C)Cc1ccc(Cl)c(Cl)c1
AC50 [1]: 3.93 µM (active)

C[C@H]1CN([C@@H](C)CO)C(=O)c2cc(NS(=O)(=O)c3ccc(F)cc3)ccc2O[C@@H]1CN(C)Cc1ccc(Oc2ccccc2)cc1
AC50 [1]: 3.72 µM (active)

CCCNCc1cc(Br)ccc1OCC(=O)NCCc1ccccc1
EC50 [2]: 0.841 µM (active)

CCC(C)NCCOCCOc1ccccc1-c1ccccc1 (stereo unspecified)
EC50 [2]: 1.19 µM (active)

Cc1cccc(C)c1Nc1c(-c2ccccn2)nc2ccccn12
EC50 [3]: 2.52 µM (active) | EC50 (cells [4]): 92.4 µM (active) | CC50 (Vero): 4.16 µM (active) | EC50 [5]: 1.45 µM (active) | CC50 [6]: 3.91 µM (active) | EC50 (cells [7]): > 350 µM (not active) | EC50 [8]: 6.81 µM (active) | EC50 (Streptococcus): 6.43 µM (active)

Oc1ccc(Br)cc1-c1nc2cnccn2c1NC1CCCCC1
Absolute IC50 (XBP1) (X-box-binding protein 1): 10 µM

O=C(Nc1ccccc1N1CCN(C(=O)c2ccccc2)CC1)c1ccc(Br)o1
EC50 [2]: 0.596 µM (active) | AC50 [9]: 10.2 µM (active) | AC50 [10]: 12.1 µM (active) | AC50 [11]: 15.2 µM (active) | AC50 [12]: 11 µM (active)

CCc1cc2ccccc2nc1SCC(=O)Nc1cc(OC)c(OC)cc1C(=O)O
IC50 (Leucine aminopeptidase): < 1 µM (active) | IC50 (Aspartyl aminopeptidase): > 73.5 µM (not active) | IC50 (Procathepsin L): > 59.6 µM (not active)
